What was measured:
Experiment in all cases: relative viability (nuclei count vs DMSO), 5 days (fraction); higher = more cells survive
Tanzisertib + Luminespib = compound: O[C@H]1CC[C@H](Nc2ncc3nc(Nc4c(F)cc(F)cc4F)n([C@H]4CCOC4)c3n2)CC1 [Tanzisertib] + CCNC(=O)c1noc(-c2cc(C(C)C)c(O)cc2O)c1-c1ccc(CN2CCOCC2)cc1 [Luminespib] (partner 0.01 µM)
Outline: (§1)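 One day after seeding in 1536-well plates, lung cancer cell lines were dosed by pin tool. Dosing was either single-drug or a fixed anchor-drug dose plus five library-drug doses (not always all listed) in √10 steps. After 5 days, nuclei were stained in one fix-and-stain step and counted on 4× images, and relative viability is the nuclei count of treated wells over that of vehicle wells, given as the median of duplicate plates.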

[1] = compound: C[C@@H](N)c1ccc(C(=O)Nc2ccnc3[nH]ccc23)cc1 + COc1cc2c(Oc3ccc(NC(=O)C4(C(=O)Nc5ccc(F)cc5)CC4)cc3F)ccnc2cc1OCCCN1CCOCC1 [Foretinib] (partner 0.25 µM)
Outline: as §1

[2] = compound: C1CNCCC1C2=CC(=NN2)C3=CC=NC=C3 + COc1cc2c(Oc3ccc(NC(=O)C4(C(=O)Nc5ccc(F)cc5)CC4)cc3F)ccnc2cc1OCCCN1CCOCC1 [Foretinib] (partner 0.25 µM)
Outline: as §1

Tanzisertib + Bortezomib = compound: O[C@H]1CC[C@H](Nc2ncc3nc(Nc4c(F)cc(F)cc4F)n([C@H]4CCOC4)c3n2)CC1 [Tanzisertib] + CC(C)C[C@H](NC(=O)[C@H](Cc1ccccc1)NC(=O)c1cnccn1)B(O)O [Bortezomib] (partner 0.002 µM)
Outline: as §1

Cell Line | relative viability (Tanzisertib + Luminespib; first compound 0.08 µM) | relative viability (Tanzisertib + Luminespib; first compound 0.253 µM) | relative viability (Tanzisertib + Luminespib; first compound 0.8 µM) | relative viability (Tanzisertib + Luminespib; first compound 2.53 µM) | relative viability (Tanzisertib + Luminespib; first compound 8 µM) | relative viability ([1]; first compound 0.04 µM) | relative viability ([1]; first compound 0.1265 µM) | relative viability ([1]; first compound 0.4 µM) | relative viability ([1]; first compound 1.265 µM) | relative viability ([1]; first compound 4 µM) | relative viability ([2]; first compound 0.08 µM) | relative viability ([2]; first compound 0.8 µM) | relative viability ([2]; first compound 2.53 µM) | relative viability ([2]; first compound 8 µM) | relative viability (Tanzisertib + Bortezomib; first compound 0.08 µM) | relative viability (Tanzisertib + Bortezomib; first compound 0.253 µM) | relative viability (Tanzisertib + Bortezomib; first compound 0.8 µM) | relative viability (Tanzisertib + Bortezomib; first compound 2.53 µM) | relative viability (Tanzisertib + Bortezomib; first compound 8 µM)
NCI-H1651 | 0.989 | 0.802 | 0.746 | 0.921 | 0.729 | 0.883 | 0.908 | 0.882 | 0.987 | 0.782 | 0.763 | 0.839 | 0.7 | 0.851 | 0.897 | 0.917 | 0.925 | 0.875 | 0.853
HARA | 0.856 | 0.907 | 1.06 | 0.79 | 0.686 | – | 0.939 | 0.943 | – | 0.896 | 0.842 | 1.21 | 0.993 | 0.707 | 1.22 | 1.16 | 1.18 | 1.17 | 1.18
NCI-H2347 | 0.494 | – | 0.581 | 0.571 | 0.511 | 1.17 | 0.964 | 1.22 | – | 1.32 | 1.21 | 0.742 | 0.805 | 1.25 | 0.737 | 0.837 | 1.27 | 1.29 | 0.628
201T | 1.09 | 1.06 | 1.06 | 1.03 | 1.05 | 1.1 | 1.04 | 1.25 | – | 1.31 | 1.08 | 1.21 | 1.3 | 1.03 | 1.08 | 1.17 | 1.1 | 1.12 | 1.08
PC-14 | 0.181 | 0.109 | 0.22 | 0.217 | 0.17 | 0.753 | 0.943 | 0.95 | 0.877 | 0.832 | 0.942 | 1.03 | 1.01 | 0.942 | 1.05 | 0.878 | 0.879 | 1.01 | 0.585
NCI-H1650 | 0.233 | 0.215 | 0.206 | 0.2 | 0.196 | 1.14 | 1.03 | 1.41 | 1.18 | 0.862 | 0.798 | 0.98 | 1.16 | 1.21 | 0.192 | 0.217 | 0.201 | 0.195 | 0.182
NCI-H727 | 0.365 | 0.345 | 0.339 | 0.375 | 0.728 | 1.07 | 1.07 | 1.36 | 1.26 | 1.24 | 0.805 | 0.758 | 1.13 | 0.904 | 1 | 0.762 | 1.04 | 0.806 | 0.64
COR-L23 | 0.588 | 0.579 | 0.669 | 0.706 | 0.639 | 0.943 | 1.01 | 1.02 | 0.938 | 0.534 | 1.07 | 0.946 | 1.01 | 0.931 | 1.13 | 0.982 | 0.975 | 1.11 | 1.04
ChaGo-K-1 | 0.573 | 0.406 | 0.552 | 0.589 | 0.648 | 0.93 | 0.955 | 0.885 | 0.918 | 0.799 | 0.997 | 1.01 | 0.886 | 0.923 | 0.915 | 1.21 | 1.07 | 0.934 | 0.916
HOP-62 | 0.966 | 0.924 | 0.886 | 0.91 | 0.883 | 1.09 | 1.05 | 1.03 | 1.16 | 0.982 | 1.06 | 1.31 | 1.18 | 1.09 | 0.803 | 0.974 | 1.01 | 0.726 | 0.704
NCI-H1915 | 0.875 | 0.839 | 0.808 | 0.789 | 0.776 | 1.17 | 1.11 | 1.12 | – | 0.984 | 1.07 | 1.13 | 1.06 | 1.09 | 0.992 | 1.07 | 1 | 0.978 | 0.989
BEN | 0.352 | 0.77 | 0.814 | 0.382 | 0.209 | 0.331 | 0.525 | 0.878 | 0.689 | 0.4 | 0.548 | 0.752 | 0.646 | 0.692 | 0.944 | 0.954 | 0.781 | 0.85 | 0.729
NCI-H1437 | 1.18 | 1.14 | 1.04 | 1.27 | 1.21 | 1.29 | 1.35 | 1.35 | 1.37 | 1.35 | 1.21 | 1.32 | 1.25 | 1.28 | 0.663 | 0.648 | 0.479 | 0.531 | 0.393
EMC-BAC-2 | 1.24 | 1.07 | 1.23 | 1.16 | 1.14 | 1.08 | 1.05 | 1.11 | 0.967 | 0.903 | 0.937 | 1.05 | 1.16 | 0.843 | 1.19 | 1.14 | 1.13 | 1.05 | 1.06
NCI-H647 | 0.152 | 0.12 | 0.196 | 0.158 | 0.336 | 1.22 | 1.06 | 1.25 | 1.21 | 0.895 | 0.922 | 1.04 | 1.27 | 1.32 | 1.03 | 1.01 | 1 | 1.14 | 1.02
LXF-289 | 0.66 | 0.621 | 0.684 | 0.675 | 0.643 | 1.11 | 0.993 | 0.987 | 1.07 | 0.843 | 0.978 | 1.03 | 0.989 | 0.918 | 1.1 | 1.03 | 1.03 | 0.977 | 1.04
LOU-NH91 | 0.431 | 0.345 | 0.371 | 0.33 | 0.349 | 0.814 | 0.981 | 0.851 | 0.804 | 0.683 | 0.944 | 0.911 | 1 | 0.936 | 0.49 | 0.516 | 0.493 | 0.502 | 0.543

From the supplement of paper PMC10307832
